This note sets out measurements from patent publication US12364755B2, “Method for obtaining globally activated monocytes” (Transimmune AG, priority 2014, dated 2025).

No end group written: not given here.

Common to all, as to type: cell-based, human
In data set [1] the test system is GILZ. Put plainly: siRNA-mediated knockdown of GILZ in MoDC. The following applies: siRNA experiments, ELISA. On the procedure: Silencer select pre-designed and validated GILZ siRNA (Invitrogen), with off-target prediction algorithms, was used to knockdown GILZ expression. Mo-DC were transfected using Lipofectamine RNAiMAX Reagent (Invitrogen). RNAi duplex and lipofectamine reagent were incubated together for 20 min, then added to MoDC cultures and incubated for 2 hr at 37° C. and 5% CO2. Transfected MoDC were treated in an identical fashion as described for the MoDC/lymphocyte co-cultures. MoDC were also transfected with scramble siRNA.
RNA was isolated from CD11c MoDC using QIAShredder columns (QIAGEN) and the RNeasy Mini Kit (QIAGEN) with on-column Dnase I treatment (QIAGEN). RNA yield and purity were assessed using a NanoDrop ND-1000 spectrophotometer. cDNA was obtained using the High Capacity cDNA Reverse Transcription Kit (Applied Biosystems) in a 96-well thcrmocycicr (MJ Research PTC-200). TaqMan real-time PCR was used to detect transcripts of GILZ, CD80, and CD86. Primers and probes were obtained as pre-designed and validated Taqman Gene Expression Assays (Applied Biosystems). SYBR green real-time PCR (Applied Biosystems) was used to detect transcripts of IL-12, IL-10, IL-6, TNF-alpha, and TGF-β. Primers were designed to span intron junctions using Primer3Plus. Primer melting curves were obtained to confirm a single product. HPRT-1 and GAPDH were used as reference genes. Samples were run in triplicate on a 7500 Real Time PCR System (Applied Biosystems). The delta-delta C(t) method was used to calculate the fold change.
(§1) Culture supernatants were analyzed in a multiplex format utilizing magnetic beads to IL-6, IL-8, IL-10, IL-12p70, TNF-a, RANTES, MCP-1, and MIP-1β (BioRad Laboratories). For siRNA experiments, supernatants were analyzed with enzyme-linked immunosorbent assay (ELISA) kits for IL-10 (R&D Systems) and IL-12p70 (Enzo Life Science). All samples and standards were run in duplicate and analyzed using the LUMINEX 200 (LUMINEX), or the BioTek EL800 (BioTek).
(An ELISA detects its analyte on a solid surface through an enzyme-linked reagent.)

Data set [2] relates to MoDC. Put plainly: Cytokine quantification in culture supernatants after LPS stimulation. Conditions: for IL-10 to IL-12p70 ratio: after LPS stimulation, untreated MoDC 6.7. On the procedure:
Non-adherent cells (purity: 66.0±4.5% CD3^+) removed during plastic adherence will now be generally referred to as lymphocytes. Lymphocytes were treated with 8-MOP (100 ng/mL) and UVA (1 J/cm^2), washed with PBS, and co-cultured in complete media at 37° C. and 5% CO2 with either PUVA-treated or untreated-MoDC in a ratio of 5 or 10 lymphocytes to 1 MoDC. MoDC treated for 24 hr with 100 nM dexamethasone (Sigma) served as the positive control group. After 24 hr, cells were harvested and MoDC were re-purified.
as §1

The test system of data set [3] is GILZ. Put plainly: GILZ mRNA expression in CD11c+ MoDC (real-time PCR). The following applies: for GILZ up-regulation, fold change relative to untreated MoDC cultured alone: 24 hr after co-culture/treatment (FIG. 13B). As for the experimental part: The tubes emitted UVA light ranging from 320 to 400 nm. The UVA irradiance (power, W/m^2) was measured using a photodiode. […] Non-adherent cells (purity: 66.0±4.5% CD3^+) removed during plastic adherence will now be generally referred to as lymphocytes. […] RNA yield and purity were assessed using a NanoDrop ND-1000 spectrophotometer. cDNA was obtained using the High Capacity cDNA Reverse Transcription Kit (Applied Biosystems) in a 96-well thcrmocycicr (MJ Research PTC-200). TaqMan real-time PCR was used to detect transcripts of GILZ, CD80, and CD86. Primers and probes were obtained as pre-designed and validated Taqman Gene Expression Assays (Applied Biosystems). SYBR green real-time PCR (Applied Biosystems) was used to detect transcripts of IL-12, IL-10, IL-6, TNF-alpha, and TGF-β. Primers were designed to span intron junctions using Primer3Plus. Primer melting curves were obtained to confirm a single product. HPRT-1 and GAPDH were used as reference genes. Samples were run in triplicate on a 7500 Real Time PCR System (Applied Biosystems). The delta-delta C(t) method was used to calculate the fold change.
(In general: Real-time PCR tracks product formation cycle by cycle.)

The test system of data set [4] is lymphocytes. Put plainly: Apoptosis of ECP-processed lymphocytes after overnight incubation. The following applies: UVA-activated 8-MOP.
Data set [5] relates to CD11c+ MoDC. Put plainly: Apoptosis of CD11c+ MoDC (Annexin-V/7-AAD). The following applies: 24 hr. As for the experimental part:
Cultures were incubated with 8-MOP (Uvadex, 20 μg/mL) for 30 min in the dark, and then irradiated with a desktop UVA light box containing a series of 12 linear fluorescent tubes. The tubes emitted UVA light ranging from 320 to 400 nm. The UVA irradiance (power, W/m^2) was measured using a photodiode. Given a measured irradiance and the absorption properties of the various components of the system, it was possible to determine the time (sec) needed to expose the cells to deliver a given dose of UVA radiation (J/cm^2).
(§2) Monoclonal antibodies included HLA-DR, CD80, CD83, CD3, CD86, CD14, CD11c and GILZ. Antibodies were obtained from Beckman-Coulter and eBioscience and were used at their pre-determined optimal dilutions. Apoptosis was assessed using the Annexin-V Apoptosis Detection Kit (eBioscience), with Annexin-V recognizing phosphatidylserine (PS) on the surface of apoptotic cells. 7-AAD substituted for PI as the cell viability dye. Cells displaying an Annexin-V^+/7-AAD^− phenotype were classified as early apoptotic cells, and cells displaying an Annexin-V^+/7-AAD^+ phenotype were classified as late apoptotic cells. Dual membrane and intracytoplasmic staining was performed using the lntraPrep fix and permeabilization kit (Beckman-Coulter). Background staining was established with appropriate isotype and fluorescence minus one controls. Immunofluorescence was analyzed using a FACSCalibur L (BD Biosciences) within 2 hr of fixation with 2% paraformaldehyde. A minimum of 10,000 events were collected for each group.

Data set [6] has as its system lymphocytes. Put plainly: Apoptosis of lymphocytes (Annexin-V/7-AAD). As for the experimental part: Lymphocytes were treated with 8-MOP (100 ng/mL) and UVA (1 J/cm^2), washed with PBS, and co-cultured in complete media at 37° C. and 5% CO2 with either PUVA-treated or untreated-MoDC in a ratio of 5 or 10 lymphocytes to 1 MoDC. MoDC treated for 24 hr with 100 nM dexamethasone (Sigma) served as the positive control group. After 24 hr, cells were harvested and MoDC were re-purified.
as §2

The test system of data set [7] is platelets. Put plainly: Platelet adhesion to fibronectin-coated plates in flow after peptide pre-treatment of platelets. Conditions: platelets (PRP) pre-incubated with peptide 2 mM, 20 minutes. As for the experimental part: (§3) Platelet adhesion experiments were performed using the Vena8 flow chamber described above. Fibrinogen and fibronectin (Sigma) were dissolved in PBS to a final concentration of 200 mcg/ml. Channels of the Vena8 chips were incubated at room temperature in a humidified chamber for 2 hours with the protein solution, autologous plasma, or PBS alone. The channels were washed with 5x the volume RPMI. Platelet-rich-plasma was then perfused through the protein-coated channel at the indicated shear-stress, held constant. For each channel, still images were acquired exactly 90 seconds into the experiment at 4 pre-defined low power fields located along the flow path (fields were centered at 2500, 7500, 12500, and 17500 microns from the start point of infusion).
(§4) Some experiments involved pre-treating platelet-rich-plasma with protein fragments prior to infusion through the channels. Small RGD peptides, containing the amino-acid sequence Arg-Gly-Asp-Ser; DRG peptides, contain the amino-acid sequence Ser-Asp-Gly-Arg; or fragment 400-411 of fibrinogen, containing the amino-acid sequence His-His-Leu-Gly-Gly-Ala-Lys-Gln-Ala-Gly-Asp-Val, were incubated at a concentration of 2 mM with PRP for 20 minutes at room temperature. The PRP was then perfused through the channels as previously described.

Data set [8] has as its system monocyte-platelet interactions. Put plainly: Monocyte-platelet interactions in flow (receptor-ligand studies). Conditions: wall shear stress 0.5 dyne/cm2; relative to P+RGD+ maximum. On the procedure: Platelet-coated Vena8 channels were pre-treated with either 40 μg/ml anti-P-selectin (R&D Systems) or 40 μg/ml of an isotype control for 30 minutes at room temperature, then washed with 5× the volume RPMI. Mononuclear cell suspensions were pre-treated with either RGD or DGR peptides at a concentration of 2.5 mM. Video samples lasting 400 frames (26.3 seconds) were recorded 60 seconds after commencement of flow using a lower power field of view spanning 400 microns and centered at 7500 microns from the flow start point.

Data set [9] relates to platelets. Put plainly: Platelet adhesion to fibrinogen-coated plates in flow after peptide pre-treatment of platelets. The following applies: platelets (PRP) pre-incubated with peptide 2 mM, 20 minutes. On the procedure: as §3, §4
The test system of data set [10] is platelets. As to the kind of experiment: Plasma protein influence on platelet adhesion to plates. The following applies: plates pre-coated with protein; wall shear stress 0.2 to 6.0 dyne/cm^2. As for the experimental part:
as §3

Data set [11] deals with monocytes. As to the kind of experiment: Static co-culture of monocytes with platelets (DC differentiation). Conditions: platelets activated with thrombin (2 units) vs not activated; 18 hours static culture. As for the experimental part: When overnight culture was required, cells were centrifuged and resuspended in RPMI-1640 medium (GIBCO), supplemented with 15% AB serum (Gemini Bio-Products) to a final concentration of 5×10^6 cells/ml. Cells were cultured overnight for 18 hours in 12-well polystyrene tissue culture plates (2 ml per well) at 37° C. in 5% CO2.
Monoclonal antibodies for immunophenotyping included CD14 (LPS receptor; monocytes), CD11c (integrin subunit; monocytes and DC), HLA-DR (class II MHC molecule), CD83 (DC marker), CD62p (P-selectin; activated platelets), and CD61 (integrin subunit; platelets). Antibodies were obtained from Beckman Coulter (CD14, CD11c, HLADR, CD83) or Sigma (CD62p, CD61) and used at their pre-determined optimal dilutions. Background staining was established with appropriate isotype controls, and immunofluorescence was analyzed using a FC500 flow cytometer (Beckman Coulter). Two-color membrane staining was performed by adding the pre-determined optimal concentrations of both antibodies directly conjugated to FITC or PE and incubating for 20 min at 4° C., followed by washing to remove unbound antibodies. Combined membrane and cytoplasmic staining was performed following manufacturer's instructions for cell fixation and permeabilization (Intraprep kit, Beckman Coulter). […]

Where [12] appears, read: 24 hr after LPS stimulation, multiplex immunoassay.
Where [13] appears, read: 100 ng/mL 8-MOP and 1 J/cm^2 UVA, 24 hr.

Regarding 8-methoxypsoralen [8-MOP], in data set [1], the “IL-10 to IL-12p70 ratio, non-transfected MoDC” value is 8.4 and the “IL-10 to IL-12p70 ratio, transfected with GILZ siRNA” value is 2.9. In [2] (setting [12]), the “production of IL-10” value is reported as “increased production of IL-10”; the “production of pro-inflammatory cytokines and chemokines” value was “decreased production of all pro-inflammatory cytokines and chemokines tested, except TNF-α and IFN-γ”. Further, in data set [2], the “IL-10 to IL-12p70 ratio” value was 38.7. The “GILZ up-regulation, fold change relative to untreated MoDC cultured alone” value in data set [3] was found to be 2.78 fold.
In turn, `COc1c2occc2cc2ccc(=O)oc12` [8-MOP, 8-methoxypsoralen] yielded an ECP-processed lymphocytes apoptotic in data set [4] of 99%. Also, the “percentage of late apoptotic CD11c+ cells” value in data set [5] (1 J/cm^2, all doses of 8-MOP tested) is “less than 13%”. The “percentage of late apoptotic CD11c+ cells” value in [5] (2 J/cm^2, all doses of 8-MOP tested) is listed as “less than 16%”. Further, the “percentage of early apoptotic CD11c+ cells compared to untreated MoDC” value in data set [5] (2 J/cm^2 and 200 ng/mL) was “increase”. Moreover, in data set [6] (setting [13]), the “percentage of early apoptotic lymphocytes” value was determined as 44.3% and the “percentage of late apoptotic lymphocytes” value was 33.7%. Moreover, in [6] (1 J/cm^2 and 100 ng/mL), the “time after treatment at which lymphocytes display Annexin-V” value was 2 h. Moreover, the “8-MOP concentration needed for an effect on GILZ expression” value in data set [3] (0.5 J/cm^2 UVA) came out at 200 ng/mL. Besides, the “time GILZ remained significantly elevated” value in [3] (8-MOP and UVA light (FIG. 10F)) stood at 72 h. Also, the “GILZ expression increase, combination of 8-MOP and UVA light” value in data set [3] (24 hr, relative to untreated MoDC (FIG. 10E)) is given as 5.5 fold. Further, in data set [3] (without UVA light, 24 hr (FIG. 10E)), the “GILZ expression, 8-MOP alone” value is “did not effect GILZ expression”.
With `C[C@@H]1C[C@H]2[C@@H]3CCC4=CC(=O)C=C[C@]4(C)[C@@]3(F)[C@@H](O)C[C@]2(C)[C@@]1(O)C(=O)CO` [dexamethasone], in data set [1], the “IL-10 to IL-12p70 ratio, non-transfected MoDC” value is reported as 15.3 and the “IL-10 to IL-12p70 ratio, transfected with GILZ siRNA” value is given as 3.9. For the same compound, the “IL-10 to IL-12p70 ratio” value in [2] was 67.7. For the same compound, in data set [3] (100 nM dex), the “time after treatment at which GILZ is up-regulated” value came to 2 h. In addition, the “GILZ up-regulation, fold change relative to untreated MoDC cultured alone” value in data set [3] stood at 4.29 fold.
Take “Arg-Gly-Asp-Ser (RGDS; printed: Arg-Gly-Asp-Ser) [RGD peptides]”: the “platelet adhesion to fibronectin-coated plates” value in [7] was “decreased adhesion significantly”. Further, the “short-duration monocyte-platelet interactions (less than 3 seconds)” value in data set [8] is given as “did not significantly alter”. Further, in data set [9], the “platelet adhesion to fibrinogen-coated plates” value is reported as “not significantly altered”.
Regarding HHLGGAKQAGDV, the “platelet adhesion to fibronectin-coated plates” value in data set [7] is “had no effect”. For the same compound, the “platelet adhesion to fibrinogen-coated plates” value in data set [9] was “significantly decreased”.
For the compound fibrinogen, in data set [10], the “platelet adhesion to coated plates in flow” value was “highest concentrations of platelets adhered”.
In the case of thrombin, the “monocyte differentiation (cells expressing DC markers)” value in data set [11] is “did not cause a discernible difference”.
